Here are results for 27 compounds from patent publication US20240254114A1, “PREPARATION OF FUSED AZOLE DERIVATIVES AS NOVEL DIACYLGLYCERIDE 0-ACYLTRANSFERASE 2 INHIBITORS” (Merck Sharp & Dohme LLC, priority 2022, published 2024).

pIC50: −log10 of the molar value. Read-outs that look alike come from different tables or passages of the source.

The assay deals with human DGAT2 (Homo sapiens (Human), UniProt Q96PD7). Nature of the assay: DGAT2 Enzymatic Activity Assay. The settings on record: 13C18-triolein product by LC/MS/MS.
Sequence of human DGAT2 (Q96PD7 whole entry): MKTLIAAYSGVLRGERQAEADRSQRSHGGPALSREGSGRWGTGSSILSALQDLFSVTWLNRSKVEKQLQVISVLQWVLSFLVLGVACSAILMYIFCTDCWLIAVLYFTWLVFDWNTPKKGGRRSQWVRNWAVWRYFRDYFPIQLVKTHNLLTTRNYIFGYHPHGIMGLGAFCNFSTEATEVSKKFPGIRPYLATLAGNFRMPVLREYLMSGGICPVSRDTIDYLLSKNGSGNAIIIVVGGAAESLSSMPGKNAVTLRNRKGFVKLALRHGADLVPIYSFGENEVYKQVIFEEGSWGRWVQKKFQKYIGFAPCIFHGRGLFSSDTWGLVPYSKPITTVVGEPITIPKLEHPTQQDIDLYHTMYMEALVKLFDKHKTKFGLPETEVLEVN
The mark [1] stands for this setting: Human DGAT2 IC50, hDGAT2 membrane prep from Sf-9 cells.
[2] abbreviates: read-out: Human DGAT2 IC50, hDGAT2 membrane prep from Sf-9 cells.

Experimental: Sf-9 insect cells were maintained in Grace's insect cell culture medium with 10% heated-inactivated fetal bovine serum, 1% Pluronic F-68 and 0.14 μg/ml Kanamycine sulfate at 27° C. in a shaker incubator. After infection with untagged baculovirus expressing human DGAT2 (hDGAT2) at multiplicity of infection (MOI) 3 for 48 hours, cells were harvested. Cell pellets were suspended in buffer containing 10 mM Tris-HCl pH 7.5, 1 mM EDTA, 250 mM sucrose and Complete Protease Inhibitor Cocktail (Sigma Aldrich), and sonicated on ice. Cell debris were removed by centrifugation at 2000×g for 15 minutes. Membrane fractions were isolated by ultracentrifugation (100,000×g), resuspended in the same buffer, and frozen (−80° C.) for later use. The protein concentration was determined with the Pierce™ BCA Protein Assay Kit (Thermo Fisher Scientific).
LC/MS/MS analyses were performed using Thermal Fisher's LX4-TSQ Vantage system. This system consists of an Agilent binary high-performance liquid chromatography (HPLC) pump and a TSQ Vantage triple quadrupole MS/MS instrument. For each sample, 2 μL samples from the top organic layer of in-plate liquid-liquid extraction were injected onto a Thermo Betabasic C4 column (2.1 mm×20 mm, 5 μm particle size). The samples were then eluted using the following conditions; mobile phase: Isopropanol: acetonitrile/10 mM ammonium formate=50/35/15 (v/v/v), flow rate: 0.8 mL/min, temperature: 25° C. Data was acquired in positive mode using a heated electrospray ionization (HESI) interface. […] The peak area was integrated by Xcalibur Quan software. The ratio between the ^13C18 triolein generated in the reaction and spiked in internal standard ^13C21-triolein was used to generate percentage inhibition and IC50 values. […] DGAT2 activity was determined by measuring the amount of enzymatic product ^13C18-triolein (^13C-1,2,3-Tri(cis-9-octadecenoyl)glycerol) using the membrane prep mentioned above. The assay was carried out in ABgene 384-well assay plates in a final volume of 25 μL at rt.

With `Cn1c(C(=O)NC2(C)CCS(=O)(=O)CC2)nc2ccc(OCC(CC(F)(F)F)OC(F)F)nc21` (single isomer, unassigned) [Example 62a, 5-[2-(difluoromethoxy)-4,4,4-trifluoro-butoxy]-3-methyl-N-(4-methyl-1,1-dioxo-thian-4-yl)imidazo[4,5-b]pyridine-2-carboxamide], the pIC50 (usually the negative decadic logarithm of the IC50, by convention in mol/L) under setting [1] was 5.88.

As for `Cn1c(C(=O)NC2(C)CCS(=O)(=O)CC2)nc2ccc(OCC(CC(F)(F)F)OC(F)F)nc21` (single isomer, unassigned) [Example 62b, 5-[2-(difluoromethoxy)-4,4,4-trifluoro-butoxy]-3-methyl-N-(4-methyl-1,1-dioxo-thian-4-yl)imidazo[4,5-b]pyridine-2-carboxamide], the pIC50 under setting [1] is 6.79. `Cn1c(C(=O)NC2(C)CCS(=O)(=O)CC2)nc2ccc(OCC(CC(F)(F)F)OCC(F)F)nc21` (single isomer, unassigned) [Example 63a, 5-[2-(2,2-difluoroethoxy)-4,4,4-trifluoro-butoxy]-3-methyl-N-(4-methyl-1,1-dioxo-thian-4-yl)imidazo[4,5-b]pyridine-2-carboxamide] showed a pIC50 under setting [1] of 7.30.

`Cn1c(C(=O)NC2(C)CCS(=O)(=O)CC2)nc2ccc(OCC(CC(F)(F)F)OCC(F)F)nc21` (single isomer, unassigned) [Example 63b, 5-[2-(2,2-difluoroethoxy)-4,4,4-trifluoro-butoxy]-3-methyl-N-(4-methyl-1,1-dioxo-thian-4-yl)imidazo[4,5-b]pyridine-2-carboxamide] gave a pIC50 under setting [1] of 9.10. The same measure, in the same setting: under `Cn1c(C(=O)NC2(C)CCS(=O)(=O)CC2)nc2ccc(OCC(OCC(F)F)C(F)(F)F)nc21` (single isomer, unassigned) [Example 64a, 5-[2-(2,2-difluoroethoxy)-3,3,3-trifluoro-propoxy]-3-methyl-N-(4-methyl-1,1-dioxo-thian-4-yl)imidazo[4,5-b]pyridine-2-carboxamide] stands 5.78; under `Cn1c(C(=O)NC2(C)CCS(=O)(=O)CC2)nc2ccc(OCC(OCC(F)F)C(F)(F)F)nc21` (single isomer, unassigned) [Example 64b, 5-[2-(2,2-difluoroethoxy)-3,3,3-trifluoro-propoxy]-3-methyl-N-(4-methyl-1,1-dioxo-thian-4-yl)imidazo[4,5-b]pyridine-2-carboxamide], 8.48; under `Cn1c(C(=O)NC2(C)CCS(=O)(=O)CC2)nc2ccc(OCC(OCC(F)F)C(F)F)nc21` (single isomer, unassigned) [Example 65a, 5-[2-(2,2-difluoroethoxy)-3,3-difluoro-propoxy]-3-methyl-N-(4-methyl-1,1-dioxo-thian-4-yl)imidazo[4,5-b]pyridine-2-carboxamide], 6.67. On the same count and under the same terms, under `Cn1c(C(=O)NC2(C)CCS(=O)(=O)CC2)nc2ccc(OCC(OCC(F)F)C(F)F)nc21` (single isomer, unassigned) [Example 65b, 5-[2-(2,2-difluoroethoxy)-3,3-difluoro-propoxy]-3-methyl-N-(4-methyl-1,1-dioxo-thian-4-yl)imidazo[4,5-b]pyridine-2-carboxamide] stands 8.55; under `O=C(N[C@H]1CCCC(F)(F)[C@@H]1O)c1nc2ccc(Oc3ncc(Cl)cc3OCC(F)(F)F)cc2o1` [Example 1, 6-[[5-chloro-3-(2,2,2-trifluoroethoxy)-2-pyridyl]oxy]-N-[(1S,2R)-3,3-difluoro-2-hydroxy-cyclohexyl]-1,3-benzoxazole-2-carboxamide], 6.24. For the compound `CC1(NC(=O)c2nc3ccc(Oc4ncccc4OCC(F)(F)F)cc3o2)CCS(=O)(=O)CC1` [Example 2, N-(4-methyl-1,1-dioxo-thian-4-yl)-6-[[3-(2,2,2-trifluoroethoxy)-2-pyridyl]oxy]-1,3-benzoxazole-2-carboxamide], the pIC50 under setting [2] was 7.33. The same measure, in the same setting: then `CC1(NC(=O)c2nc3ccc(Oc4ncc(Cl)cc4OCC(F)(F)F)cc3o2)CCS(=O)(=O)CC1` [Example 3, 6-[[5-chloro-3-(2,2,2-trifluoroethoxy)-2-pyridyl]oxy]-N-(4-methyl-1,1-dioxo-thian-4-yl)-1,3-benzoxazole-2-carboxamide], with 7.20; and `CC1(NC(=O)c2nc3ccc(Oc4ncc(Cl)cc4OCC(F)(F)F)cc3o2)CC(F)(F)C1` [Example 4], with 6.63. With `O=C(N[C@H]1CCOC1)c1nc2ccc(Oc3ncc(Cl)cc3OCC(F)(F)F)cc2o1` [Example 5, 6-[[5-chloro-3-(2,2,2-trifluoroethoxy)-2-pyridyl]oxy]-N-[(3S)-tetrahydrofuran-3-yl]-1,3-benzoxazole-2-carboxamide], the pIC50 under setting [2] is 5.74. Consider `CO[C@]1(C(F)(F)F)C[C@H](NC(=O)c2nc3ccc(Oc4ncc(Cl)cc4OCC(F)(F)F)cc3o2)C1` [Example 6, 6-[[5-chloro-3-(2,2,2-trifluoroethoxy)-2-pyridyl]oxy]-N-[3-methoxy-3-(trifluoromethyl)cyclobutyl]-1,3-benzoxazole-2-carboxamide], for which the pIC50 under setting [2] is 6.05. Still for that read-out and setting: then `CO[C@]1(C(F)(F)F)C[C@@H](NC(=O)c2nc3ccc(Oc4ncc(Cl)cc4OCC(F)(F)F)cc3o2)C1` [Example 7, 6-[[5-chloro-3-(2,2,2-trifluoroethoxy)-2-pyridyl]oxy]-N-[3-methoxy-3-(trifluoromethyl)cyclobutyl]-1,3-benzoxazole-2-carboxamide], with 5.85; and `CC1(NC(=O)c2nc3ccc(Oc4ncc(Cl)cc4OCC(F)(F)F)cc3o2)CCC(F)(F)CC1` [Example 9, 6-[[5-chloro-3-(2,2,2-trifluoroethoxy)-2-pyridyl]oxy]-N-(4,4-difluoro-1-methyl-cyclohexyl)-1,3-benzoxazole-2-carboxamide], with 7.54. Turning to `CC1(NC(=O)c2nc3cc(Oc4ncccc4OCC(F)(F)F)ccc3o2)CCS(=O)(=O)CC1` [Example 10, N-(4-methyl-1,1-dioxidotetrahydro-2H-thiopyran-4-yl)-5-((3-(2,2,2-trifluoroethoxy)pyridin-2-yl)oxy)benzo[d]oxazole-2-carboxamide], the pIC50 under setting [1] is 6.03. Regarding `Cn1c(C(=O)NC2(C)CCS(=O)(=O)CC2)nc2ccc(Oc3ncccc3OCC(F)(F)F)cc21` [Example 11, 1-Methyl-N-(4-methyl-1,1-dioxidotetrahydro-2H-thiopyran-4-yl)-6-((3-(2,2,2-trifluoroethoxy)pyridin-2-yl)oxy)-1H-benzo[d]imidazole-2-carboxamide], the pIC50 under setting [1] was 8.89. Under setting [1], `Cn1c(C(=O)NC2(C)CCS(=O)(=O)CC2)nc2cc(Oc3ncccc3OCC(F)(F)F)ccc21` [Example 12, 1-Methyl-N-(4-methyl-1,1-dioxidotetrahydro-2H-thiopyran-4-yl)-5-((3-(2,2,2-trifluoroethoxy)pyridin-2-yl)oxy)-1H-benzo[d]imidazole-2-carboxamide] gave a pIC50 of 6.16. For the compound `Cn1c(C(=O)NC2(C)CCS(=O)(=O)CC2)nc2ccc(Oc3ncc(Cl)cc3OCC(F)(F)F)c(F)c21` [Example 21, 6-((5-Chloro-3-(2,2,2-trifluoroethoxy)pyridin-2-yl)oxy)-7-fluoro-1-methyl-N-(4-methyl-1,1-dioxidotetrahydro-2H-thiopyran-4-yl)-1H-benzo[d]imidazole-2-carboxamide], the pIC50 under setting [1] was 8.64. Compound `Cn1c(C(=O)NC2(C)CCS(=O)(=O)CC2)nc2c(F)c(Oc3ncc(Cl)cc3OCC(F)(F)F)ccc21` [Example 22, 5-((5-chloro-3-(2,2,2-trifluoroethoxy)pyridin-2-yl)oxy)-4-fluoro-1-methyl-N-(4-methyl-1,1-dioxidotetrahydro-2H-thiopyran-4-yl)-1H-benzo[d]imidazole-2-carboxamide] gave a pIC50 under setting [1] of 6.22. The same measure, in the same setting: then `Cn1c(C(=O)NC2(C)CCS(=O)(=O)CC2)nc2ccc(Oc3ncc(Cl)cc3OCC(F)(F)F)c(Cl)c21` [Example 23, 7-Chloro-6-((5-chloro-3-(2,2,2-trifluoroethoxy)pyridin-2-yl)oxy)-1-methyl-N-(4-methyl-1,1-dioxidotetrahydro-2H-thiopyran-4-yl)-1H-benzo[d]imidazole-2-carboxamide], with 8.66; and `Cn1c(C(=O)NC2(C)CCS(=O)(=O)CC2)nc2c(Cl)c(Oc3ncc(Cl)cc3OCC(F)(F)F)ccc21` [Example 24, 4-Chloro-5-((5-chloro-3-(2,2,2-trifluoroethoxy)pyridin-2-yl)oxy)-1-methyl-N-(4-methyl-1,1-dioxidotetrahydro-2H-thiopyran-4-yl)-1H-benzo[d]imidazole-2-carboxamide], with 7.05; and `Cc1c(Oc2ncc(Cl)cc2OCC(F)(F)F)ccc2nc(C(=O)NC3(C)CCS(=O)(=O)CC3)n(C)c12` [Example 25, 6-((5-chloro-3-(2,2,2-trifluoroethoxy)pyridin-2-yl)oxy)-1,7-dimethyl-N-(4-methyl-1,1-dioxidotetrahydro-2H-thiopyran-4-yl)-1H-benzo[d]imidazole-2-carboxamide], with 9.22. In the case of `Cc1c(Oc2ncc(Cl)cc2OCC(F)(F)F)ccc2c1nc(C(=O)NC1(C)CCS(=O)(=O)CC1)n2C` [Example 26, 5-((5-chloro-3-(2,2,2-trifluoroethoxy)pyridin-2-yl)oxy)-1,4-dimethyl-N-(4-methyl-1,1-dioxidotetrahydro-2H-thiopyran-4-yl)-1H-benzo[d]imidazole-2-carboxamide], the pIC50 under setting [1] was 7.36. Same read-out and setting: then `Cn1c(C(=O)NC2(C)CCS(=O)(=O)CC2)nc2c(F)cc(Oc3ncc(Cl)cc3OCC(F)F)cc21` [Example 27, 6-((5-chloro-3-(2,2-difluoroethoxy)pyridin-2-yl)oxy)-4-fluoro-1-methyl-N-(4-methyl-1,1-dioxidotetrahydro-2H-thiopyran-4-yl)-1H-benzo[d]imidazole-2-carboxamide], with 8.57; and `Cn1c(C(=O)NC2(C)CCS(=O)(=O)CC2)nc2ccc(Oc3ncc(Cl)cc3OCC(F)F)nc21` [Example 28, 5-((5-Chloro-3-(2,2-difluoroethoxy)pyridin-2-yl)oxy)-3-methyl-N-(4-methyl-1,1-dioxidotetrahydro-2H-thiopyran-4-yl)-3H-imidazo[4,5-b]pyridine-2-carboxamide], with 8.89.
